Results published in patent US20250270246A1, “LINCOSAMIDES AND USES THEREOF” (President and Fellows of Harvard College, priority 2022, published 2025).
Structures can show the parent of a compound that is named as a salt. Where two headings read alike, the source gives them in different places.

Assays:
[1] = rcm bond, Grubbs II (20 mol%)/benzoquinone, toluene
[2] = test system: A. baumannii ATCC 19606 (HAV#010); assay: MIC by broth microdilution (CLSI); assay type: cell-based; conditions: HAV#010, ATCC 19606, CaMHB, 24 h incubation; for MIC A. baumannii ATCC 19606: formate salt; for MIC: Acinetobacter baumannii, ATCC19606, 24 h, read-out: MIC A. baumannii ATCC 19606
Outline: (§1)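 Lowest concentration (μg/mL) without visible bacterial growth after 24 h was taken as MIC, using CLSI microdilution at 5×10^5 CFU/mL in CaMHB. Chelex 100 treatment of the broth applied only to P. aeruginosa.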

[3] = test system: E. coli ATCC 25922 (HAV#006); assay: MIC by broth microdilution (CLSI); assay type: cell-based; conditions: HAV#006, ATCC 25922, CaMHB, 24 h incubation; for MIC E. coli ATCC 25922: formate salt; for MIC: Escherichia coli, ATCC25922, 24 h, read-out: MIC E. coli ATCC 25922
Outline: as §1

[4] = test system: E. coli lptD mutant; assay: MIC by broth microdilution (CLSI); assay type: cell-based; conditions: CaMHB, 24 h incubation; for MIC E. coli lptD mutant: lptD mutant / ΔlptD mutant, formate salt; for MIC: Escherichia coli, 24 h, read-out: MIC E. coli lptD mutant, lptD mutant / ΔlptD mutant
Outline: as §1

[5] = test system: E. coli ΔtolC; assay: MIC by broth microdilution (CLSI); assay type: cell-based; conditions: CaMHB, 24 h incubation; for MIC E. coli ΔtolC: formate salt; for MIC: Escherichia coli, 24 h, read-out: MIC E. coli ΔtolC, ΔtolC
Outline: as §1

[6] = test system: E. faecalis ATCC 29212 (HAV#005); assay: MIC by broth microdilution (CLSI); assay type: cell-based; conditions: HAV#005, ATCC 29212, CaMHB, 24 h incubation; for MIC E. faecalis ATCC 29212: formate salt; for MIC: Enterococcus faecalis, ATCC29212, 24 h, read-out: MIC E. faecalis ATCC 29212
Outline: as §1

[7] = test system: E. faecium JMI-990536; assay: MIC by broth microdilution (CLSI); assay type: cell-based; conditions: JMI-990536, CaMHB, 24 h incubation; for MIC E. faecium JMI-990536: formate salt; for MIC: Enterococcus faecium, JMI990536, 24 h, read-out: MIC E. faecium JMI-990536
Outline: as §1

[8] = test system: K. pneumoniae JMI-991193; assay: MIC by broth microdilution (CLSI); assay type: cell-based; conditions: JMI-991193, CaMHB, 24 h incubation; for MIC: Klebsiella pneumoniae, JMI991193, 24 h, read-out: MIC K. pneumoniae JMI-991193
Outline: as §1

[9] = test system: S. aureus ATCC 29213 (HAV#001); assay: MIC by broth microdilution (CLSI); assay type: cell-based; conditions: HAV#001, ATCC 29213, CaMHB, 24 h incubation; for MIC S. aureus ATCC 29213: formate salt; for MIC: Staphylococcus aureus, ATCC29213, 24 h, read-out: MIC S. aureus ATCC 29213
Outline: as §1

[10] = test system: S. aureus Clinical (cfr); assay: MIC by broth microdilution (CLSI); assay type: cell-based; conditions: Clinical (cfr), CaMHB, 24 h incubation; for MIC S. aureus Clinical (cfr): formate salt; for MIC: Staphylococcus aureus, 24 h, read-out: MIC S. aureus Clinical (cfr)
Outline: as §1

[11] = test system: S. aureus MMX 3035; assay: MIC by broth microdilution (CLSI); assay type: cell-based; conditions: MMX 3035, CaMHB, 24 h incubation; for MIC S. aureus MMX 3035: formate salt; for MIC: Staphylococcus aureus, MMX3035, 24 h, read-out: MIC S. aureus MMX 3035
Outline: as §1

[12] = from C=CCCCCS[C@H]1O[C@H]([C@H](N[S@](=O)C(C)(C)C)[C@H](C)C=C)[C@H](OC(C)=O)[C@H](OC(C)=O)[C@H]1OC(C)=O, 12-membered ring, 2.0 mM, 0.25 h

Structure (SMILES): CC(=O)O[C@@H]1[C@H](OC(C)=O)[C@@H](OC(C)=O)[C@@H]2O[C@@H]1[C@H](N[S@](=O)C(C)(C)C)C(C)/C=C/CCCCS2 (stereo partly drawn)
- ring closure, isolated yield [1, 12]: 64.8%

Structure (SMILES): C[C@@H]1/C=C\CCS[C@H]2O[C@H]([C@@H]1N[S@](=O)C(C)(C)C)[C@H](OC(=O)c1ccccc1)[C@H](OC(=O)c1ccccc1)[C@H]2OC(=O)c1ccccc1
- ring closure, isolated yield ([1]; from C=CCCS[C@H]1O[C@H]([C@H](N[S@](=O)C(C)(C)C)[C@H](C)C=C)[C@H](OC(=O)c2ccccc2)[C@H](OC(=O)c2ccccc2)[C@H]1OC(=O)c1ccccc1, 10-membered ring, 0.2 mM, 0.33 h): 19%

Structure (SMILES): CC(=O)O[C@@H]1[C@H](OC(C)=O)[C@@H](OC(C)=O)[C@@H]2O[C@@H]1[C@H](N[S@](=O)C(C)(C)C)C(C)/C=C\CCCCS2 (stereo partly drawn)
- ring closure, isolated yield [1, 12]: 6.3%

Structure (SMILES): C[C@@H]1/C=C\C[C@@H](CO[Si](C)(C)C(C)(C)C)S[C@H]2O[C@H]([C@@H]1N[S@](=O)C(C)(C)C)[C@H](OC(=O)c1ccccc1)[C@H](OC(=O)c1ccccc1)[C@H]2OC(=O)c1ccccc1
- ring closure, isolated yield ([1]; from C=CCC(CO[Si](C)(C)C(C)(C)C)S[C@H]1O[C@H]([C@H](N[S@](=O)C(C)(C)C)C(C)C=C)[C@H](OC(=O)c2ccccc2)[C@H](OC(=O)c2ccccc2)[C@H]1OC(=O)c1ccccc1, 10-membered ring, 2.0 mM, 0.25 h): 85%

Structure (SMILES): C[C@H]1/C=C/CCS[C@H]2O[C@H]([C@@H]1N[S@](=O)C(C)(C)C)[C@H](OC(=O)c1ccccc1)[C@H](OC(=O)c1ccccc1)[C@H]2OC(=O)c1ccccc1
- ring closure, isolated yield ([1]; from C=CCCS[C@H]1O[C@H]([C@H](N[S@](=O)C(C)(C)C)[C@@H](C)C=C)[C@H](OC(=O)c2ccccc2)[C@H](OC(=O)c2ccccc2)[C@H]1OC(=O)c1ccccc1, 10-membered ring, 0.2 mM, 0.33 h): 6%

Structure (SMILES): CC(=O)O[C@@H]1[C@H](OC(C)=O)[C@@H](OC(C)=O)[C@@H]2O[C@@H]1[C@H](N[S@](=O)C(C)(C)C)C(C)/C=C/CCCS2 (mixture of isomers)
- ring closure, isolated yield ([1]; from C=CCCCS[C@H]1O[C@H]([C@H](N[S@](=O)C(C)(C)C)[C@H](C)C=C)[C@H](OC(C)=O)[C@H](OC(C)=O)[C@H]1OC(C)=O, 11-membered ring, 1.9 mM, 0.25 h): 85%

Structure (SMILES): O=C(N[C@@H]1C/C=C\CCS[C@H]2O[C@H]1[C@H](O)[C@H](O)[C@H]2O)C(F)(F)F
- ring closure, isolated yield ([1]; from C=CCCS[C@H]1O[C@H]([C@@H](CC=C)NC(=O)C(F)(F)F)[C@H](O)[C@H](O)[C@H]1O, 10-membered ring, 0.4 mM, 0.33 h): 39%

Structure (SMILES): CC(C)C[C@@H]1CCO[C@@H]2[C@H](CN[C@@H]2C(=O)N[C@H]2[C@H]3O[C@H](SCCC/C=C/[C@H]2C)[C@H](O)[C@@H](O)[C@H]3O)C1 [FSA1609095, (4S,5aS,8S,8aR)-4-isobutyl-N-((1R,8R,9R,10R,11R,12S,13R,E)-11,12,13-trihydroxy-8-methyl-14-oxa-2-thiabicyclo[8.3.1]tetradec-6-en-9-yl) octahydro-2H-oxepino[2,3-c]pyrrole-8-carboxamide formate salt]
- MIC A. baumannii ATCC 19606 [2]: 4 µg/mL
- MIC E. coli ATCC 25922 [3]: 8 µg/mL
- MIC E. coli lptD mutant [4]: 0.5 µg/mL
- MIC E. coli ΔtolC [5]: 4 µg/mL
- MIC E. faecalis ATCC 29212 [6]: 0.125 µg/mL
- MIC E. faecium JMI-990536 [7]: 2 µg/mL
- MIC K. pneumoniae JMI-991193 ([8]; formate salt): 16 µg/mL
- MIC S. aureus ATCC 29213 [9]: ≤0.06 µg/mL
- MIC S. aureus Clinical (cfr) [10]: 8 µg/mL
- MIC S. aureus MMX 3035 [11]: 2 µg/mL

Structure (SMILES): CC(C)(C)[S@@](=O)N[C@@H]1C/C=C\CC(CO[Si](C)(C)C(C)(C)C)S[C@H]2O[C@H]1[C@H](OC(=O)c1ccccc1)[C@H](OC(=O)c1ccccc1)[C@H]2OC(=O)c1ccccc1 (stereo partly drawn)
- ring closure, isolated yield ([1]; from C=CCC(CO[Si](C)(C)C(C)(C)C)S[C@H]1O[C@H]([C@@H](CC=C)N[S@](=O)C(C)(C)C)[C@H](OC(=O)c2ccccc2)[C@H](OC(=O)c2ccccc2)[C@H]1OC(=O)c1ccccc1, 10-membered ring, 1.0 mM, 0.25 h): 85%

Structure (SMILES): CC(C)C[C@@H]1CCO[C@@H]2[C@H](CN[C@@H]2C(=O)N[C@@H]2C/C=C/[C@H](O)CS[C@H]3O[C@H]2[C@H](O)[C@H](O)[C@H]3O)C1 [FSA1608009, (4S,5aS,8S,8aR)-4-isobutyl-N-((1R,4S,8R,9R,10R,11S,12R,E)-4,10,11,12-tetrahydroxy-13-oxa-2-thiabicyclo[7.3.1]tridec-5-en-8-yl) octahydro-2H-oxepino[2,3-c]pyrrole-8-carboxamide formate salt]
- MIC [2]: > 64 µg/mL
- MIC [3]: > 64 µg/mL
- MIC [4]: > 64 µg/mL
- MIC [5]: > 64 µg/mL
- MIC [6]: > 64 µg/mL
- MIC [7]: > 64 µg/mL
- MIC [8]: > 64 µg/mL
- MIC [9]: 32 µg/mL
- MIC [10]: > 64 µg/mL
- MIC [11]: > 64 µg/mL

Structure (SMILES): CC(C)C[C@@H]1CCO[C@@H]2[C@H](CN[C@@H]2C(=O)N[C@@H]2C/C=C\C[C@@H](c3c[nH]nn3)S[C@H]3O[C@H]2[C@H](O)[C@H](O)[C@H]3O)C1 [FSA1607090, (4S,5aS,8S,8aR)-4-isobutyl-N-((1R,3S,8R,9R,10R,11S,12R,Z)-10,11,12-trihydroxy-3-(1H-1,2,3-triazol-4-yl)-13-oxa-2-thiabicyclo[7.3.1]tridec-5-en-8-yl) octahydro-2H-oxepino[2,3-c]pyrrole-8-carboxamide formate salt]
- MIC [2]: > 64 µg/mL
- MIC [3]: > 64 µg/mL
- MIC [4]: 8 µg/mL
- MIC [5]: 4 µg/mL
- MIC [6]: 32 µg/mL
- MIC [7]: 16 µg/mL
- MIC [8]: > 64 µg/mL
- MIC [9]: 8 µg/mL
- MIC [10]: > 64 µg/mL
- MIC [11]: 32 µg/mL

Structure (SMILES): CC(C)C[C@@H]1CCO[C@@H]2[C@H](CN[C@@H]2C(=O)N[C@@H]2C(C)/C=C/CCCSC3OC2C(O)C(O)C3O)C1 (stereo in doubt) [FSA1609094, (4S,5aS,8S,8aR)-4-isobutyl-N-((1R,8S,9R,10R,11R,12S,13R,E)-11,12,13-trihydroxy-8-methyl-14-oxa-2-thiabicyclo[8.3.1]tetradec-6-en-9-yl) octahydro-2H-oxepino[2,3-c]pyrrole-8-carboxamide formate salt]
- MIC A. baumannii ATCC 19606 [2]: >32 µg/mL
- MIC E. coli ATCC 25922 [3]: >32 µg/mL
- MIC E. coli lptD mutant [4]: 32 µg/mL
- MIC E. coli ΔtolC [5]: 32 µg/mL
- MIC E. faecalis ATCC 29212 [6]: 2 µg/mL
- MIC E. faecium JMI-990536 [7]: >32 µg/mL
- MIC [8]: > 32 µg/mL
- MIC S. aureus ATCC 29213 [9]: 0.25 µg/mL
- MIC S. aureus Clinical (cfr) [10]: >32 µg/mL
- MIC S. aureus MMX 3035 [11]: >32 µg/mL
